The source made the active and inactive calls. The calls are words filed in the database; no cut-off is given here.
What was measured:
H9c2 [1] = experiment: Cardioprotective activity against CoCl2-induced cellular hypoxia injury in rat H9c2 cells assessed as mitochondrial membrane potential at 10 uM incubated for 24 hrs in presence of GSSG by JC-1 staining based analysis (reference value: 48.08 %); assay type: functional
H9c2 [2] = experiment: Antioxidant activity against CoCl2-induced cellular hypoxia injury in rat H9c2 cells assessed as increase in hypoxia-reduced SOD level at 5 to 10 uM incubated for 24 hrs; assay type: functional, cell-based; conditions: dose 5-10 µM
[3] = Induction of H2S […] activity in presence of GSSH; assay type: functional
H9c2 [4] = experiment: Upregulation of SIRT1 mRNA level in CoCl2-induced cellular hypoxia injury in rat H9c2 cells at 5 to 10 uM incubated for 24 hrs by qPCR analysis; assay type: functional, cell-based; conditions: dose 5-10 µM
H9c2 [5] = experiment: Cardioprotective activity against CoCl2-induced cellular hypoxia injury in rat H9c2 cells assessed as ROS accumulation at 10 uM incubated for 24 hrs by DCFH-DA probe based analysis (reference value: 28.03 %); assay type: functional
H9c2 [6] = experiment: Cardioprotective activity against CoCl2-induced cellular hypoxia injury in rat H9c2 cells assessed as reduction in apoptosis at 5 to 10 uM incubated for 24 hrs by flow cytometry; assay type: functional, cell-based; conditions: dose 5-10 µM
H9c2 [7] = experiment: Cardioprotective activity against CoCl2-induced cellular hypoxia injury in rat H9c2 cells assessed as cell viability at 1.25 uM incubated for 24 hrs by CCK-8 assay (reference value: 51.80 +/- 2.58 %); assay type: functional; conditions: read-out: Activity
[8] = biological target: T1, NAD-dependent protein deacetylase sirtuin-1 (Rattus norvegicus) (UniProt A0A0G2JZ79); experiment: Activation of SIRT1 in CoCl2-induced cellular hypoxia injury in rat H9c2 cells at 5 to 10 uM incubated for 24 hrs by immunofluorescence based analysis; assay type: cell-based; conditions: filed as activator, dose 5-10 µM
T1 sequence (whole entry): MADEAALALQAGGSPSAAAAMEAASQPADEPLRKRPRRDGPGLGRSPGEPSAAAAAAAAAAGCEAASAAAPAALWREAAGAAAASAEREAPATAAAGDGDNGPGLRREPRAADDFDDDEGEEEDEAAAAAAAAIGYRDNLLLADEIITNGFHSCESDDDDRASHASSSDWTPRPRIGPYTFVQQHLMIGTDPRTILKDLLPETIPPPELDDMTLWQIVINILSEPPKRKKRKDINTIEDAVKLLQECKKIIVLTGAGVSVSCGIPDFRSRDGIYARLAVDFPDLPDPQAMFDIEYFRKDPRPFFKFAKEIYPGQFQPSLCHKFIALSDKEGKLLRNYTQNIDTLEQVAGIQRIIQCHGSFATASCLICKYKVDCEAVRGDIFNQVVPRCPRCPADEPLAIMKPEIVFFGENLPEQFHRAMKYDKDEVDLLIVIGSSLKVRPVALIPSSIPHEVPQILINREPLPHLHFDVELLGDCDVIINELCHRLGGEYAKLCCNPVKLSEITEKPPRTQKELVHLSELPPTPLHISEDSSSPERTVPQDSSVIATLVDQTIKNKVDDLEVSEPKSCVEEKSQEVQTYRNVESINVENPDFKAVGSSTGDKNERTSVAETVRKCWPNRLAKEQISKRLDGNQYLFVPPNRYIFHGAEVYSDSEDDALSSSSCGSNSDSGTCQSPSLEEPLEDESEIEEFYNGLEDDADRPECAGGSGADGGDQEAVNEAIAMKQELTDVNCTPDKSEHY

H9c2 [9] = experiment: Antioxidant activity against CoCl2-induced cellular hypoxia injury in rat H9c2 cells assessed as increase in Nrf2 level at 5 to 10 uM incubated for 24 hrs by Western blot analysis; assay type: functional, cell-based; conditions: dose 5-10 µM
H9c2 [10] = experiment: Cardioprotective activity against CoCl2-induced cellular hypoxia injury in rat H9c2 cells assessed as rate of necrosis at 10 uM incubated for 24 hrs in presence of GSSG by flow cytometry (reference value: 22.5 %); assay type: functional
Rattus norvegicus [11] = experiment: Cardioprotective activity in myocardial ischemia Sprague-Dawley rat model assessed as improvement in tissue clearance at 10 to 30 mg/kg, IG treated for 7 days consecutively followed by ISO administration daily for 2 days consecutively by H and E/Masson staining based analysis; assay type: functional, organism-based; conditions: dose 10-30 mg/kg, time 9.0 day
H9c2 [12] = experiment: Antioxidant activity against CoCl2-induced cellular hypoxia injury in rat H9c2 cells assessed as increase in hypoxia-reduced GSH level at 5 to 10 uM incubated for 24 hrs; assay type: functional, cell-based; conditions: dose 5-10 µM
Rattus norvegicus [13] = experiment: In vivo activation of SIRT1 in myocardial tissue of myocardial ischemia Sprague-Dawley rat model at 10 to 30 mg/kg, IG treated for 7 days consecutively followed by ISO administration daily for 2 days consecutively by Western blot analysis; assay type: functional, organism-based; conditions: dose 10-30 mg/kg, time 9.0 day
[14] = Induction of H2S release in PBS at pH 7.4 measured upto 60 mins by methylene blue method; assay type: functional
H9c2 [15] = experiment: Cardioprotective activity against CoCl2-induced cellular hypoxia injury in rat H9c2 cells assessed as increase in PGC1-alpha level at 5 to 10 uM incubated for 24 hrs by Western blot analysis; assay type: functional, cell-based; conditions: dose 5-10 µM
H9c2 [16] = experiment: Cardioprotective activity against CoCl2-induced cellular hypoxia injury in rat H9c2 cells assessed as inhibition of ROS-induced cell damage at 5 to 10 uM incubated for 24 hrs by fluorescence based analysis; assay type: functional; conditions: dose 5-10 µM
H9c2 [17] = experiment: Antioxidant activity against CoCl2-induced cellular hypoxia injury in rat H9c2 cells assessed as decrease in hypoxia-induced LDH release at 10 uM incubated for 24 hrs in presence of GSSG; assay type: functional, cell-based
H9c2 [18] = experiment: Cardioprotective activity against CoCl2-induced cellular hypoxia injury in rat H9c2 cells assessed as rate of apoptosis at 10 uM incubated for 24 hrs in presence of GSSG by flow cytometry (reference value: 19.5 %); assay type: functional
H9c2 [19] = experiment: Cardioprotective activity against CoCl2-induced cellular hypoxia injury in rat H9c2 cells assessed as cell viability at 5 uM incubated for 24 hrs by CCK-8 assay (reference value: 51.80 +/- 2.58 %); assay type: functional; conditions: read-out: Activity
[20] = Toxicity in myocardial ischemia Sprague-Dawley rat model assessed as change in body weight at 10 to 30 mg/kg, IG treated for 7 days consecutively followed by ISO administration daily for 2 days consecutively; assay type: organism-based; conditions: in vivo, po, 216 h, dose 10-30 mg/kg, time 9 day
H9c2 [21] = experiment: Cardioprotective activity against CoCl2-induced cellular hypoxia injury in rat H9c2 cells assessed as reduction in hypoxia-induced apoptosis at 5 to 10 uM incubated for 24 hrs by Hoechst 33258 nuclear staining based analysis; assay type: functional, cell-based; conditions: dose 5-10 µM
H9c2 [22] = experiment: Antioxidant activity against CoCl2-induced cellular hypoxia injury in rat H9c2 cells assessed as decrease in hypoxia-induced MDA level at 5 to 10 uM incubated for 24 hrs; assay type: functional, cell-based; conditions: dose 5-10 µM
[23] = Induction of H2S release in PBS at pH 7.4 at 100 uM measured upto 60 mins by methylene blue method; assay type: functional
Rattus norvegicus [24] = experiment: Cardioprotective activity against myocardial ischemia Sprague-Dawley rat model assessed as increase in PGC1-alpha level in myocardial tissue at 10 to 30 mg/kg, IG treated for 7 days consecutively followed by ISO administration daily for 2 days consecutively by Western blot analysis; assay type: functional, organism-based; conditions: dose 10-30 mg/kg, time 9.0 day
H9c2 [25] = experiment: Cardioprotective activity against CoCl2-induced cellular hypoxia injury in rat H9c2 cells assessed as ROS accumulation at 5 uM incubated for 24 hrs by DCFH-DA probe based analysis (reference value: 28.03 %); assay type: functional

## C=CCSSCCC(=O)O[C@H]1CC[C@]2(C)[C@H]3C[C@@H](O)[C@@H]4[C@@H]([C@]5(C)CC[C@@H](C(C)(C)O)O5)CC[C@@]4(C)[C@]3(C)CC[C@H]2C1(C)C
H9c2 [1]
  Activity: 61.96%
H9c2 [2]
  Activity: Active
[3]
  Activity: 18.6%
H9c2 [4]
  Activity: Active
H9c2 [5]
  Activity: 4.74%
H9c2 [6]
  Activity: Active
H9c2 [7]
  viability at 1.25 µM: 85.7%
[8]
  Activity: Active
H9c2 [9]
  Activity: Active
H9c2 [10]
  Activity: 7.54%
Rattus norvegicus [11]
  Activity: Active
H9c2 [12]
  Activity: Active
Rattus norvegicus [13]
  Activity: Active
[14]
  Activity: 30.7 µM
H9c2 [15]
  Activity: Active
H9c2 [16]
  inhibition: Active
H9c2 [17]
  Activity: inactive
H9c2 [18]
  Activity: 8.01%
H9c2 [19]
  viability at 5 µM: 94.2%
[20]
  Activity: Non-toxic
H9c2 [21]
  Activity: Active
H9c2 [22]
  Activity: Active
[23]
  Activity: Active
Rattus norvegicus [24]
  Activity: Active
H9c2 [25]
  Activity: 6.38%
